In patent US9617283B2, “Bicyclic heterocycle compounds and their uses in therapy” (ASTEX THERAPEUTICS LIMITED, priority 2012, dated 2017):
Where a name gives a salt, the structure may show the parent alone. Read-outs that look alike come from different tables or passages of the source.

Assays:
[1] = tested on: EVSA-T (human breast carcinoma); assay: Anti-proliferative activity, Alamar Blue assay, EVSA-T; assay type: cell-based
Experimental: Anti-Proliferative Activity
The method is based on the ability of viable cells to reduce resazurin to its fluorescent product resorufin. For each proliferation assay cells are plated onto 96 well plates and allowed to recover for 16 hours prior to the addition of inhibitor compounds (in 0.1% DMSO v/v) for a further 72 hours. […] The anti-proliferative activities of compounds of the invention can be determined by measuring the ability of the compounds to inhibit growth in 3 cancer cell lines: • EVSA-T (human breast carcinoma) DSMZ cat. no.

[2] = molecular target: T1, BIR3 domain of human XIAP (residues 252-350) (Homo sapiens, UniProt P98170); assay: XIAP in vitro competitive displacement binding assay (fluorescence polarization); settings: 1 h, percent inhibition (PI) at 0.04 μM; read-out: Xiap IC50 or PI μM
T1 construct: BIR3 domain of human XIAP (residues 252-350); His-tag (cleaved yes); made in house; host or cells: Escherichia coli

[3] = Homo sapiens, EVSA-T, 72 h, EVSA-T cell line, 72 hours, Alamar Blue, read-out: EVSA-T prolif
[4] = Homo sapiens, EVSA-T, read-out: EC50 in EVSA-T cell line assays

T1 sequence (P98170 252-350): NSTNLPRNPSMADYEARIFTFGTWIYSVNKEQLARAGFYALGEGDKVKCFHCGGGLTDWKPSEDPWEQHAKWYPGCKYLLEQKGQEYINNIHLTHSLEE

| Compound | EC50 [1, 3] [nM] | EC50 [1, 4] [nM] | inhibition at 0.04 µM [2] [%] | EC50 ([1]; EVSA-T cell line, 72 hours, Alamar Blue, dihydrochloride, read-out: EVSA-T prolif) [nM] |
| --- | --- | --- | --- | --- |
| CC1=C(C)C(=O)N(C[C@H]2CN[C@H](C)CN2CC(=O)N2CC(C)(C)c3cnc(Cc4ccc(F)cc4F)cc32)C1 [Example 33, 1-{[(2R,5R)-1-(2-{6-[(2,4-Difluorophenyl)methyl]-3,3-dimethyl-1H,2H,3H-pyrrolo[3,2-c]pyridin-1-yl}-2-oxoethyl)-5-methylpiperazin-2-yl]methyl}-3,4-dimethyl-2,5-dihydro-1H-pyrrol-2-one dihydrochloride] | 1.1 | < 1000 | 81 | – |
| C[C@@H]1CN(CC(=O)N2CC(C)(C)c3ncc(Cc4ccc(F)cc4)cc32)[C@@H](CN2CC(C)(C)CC2=O)CN1 [Example 1, 1-{[(2R,5R)-1-(2-{6-[(4-Fluorophenyl)methyl]-3,3-dimethyl-1H,2H,3H-pyrrolo[3,2-b]pyridin-1-yl}-2-oxoethyl)-5-methylpiperazin-2-yl]methyl}-4,4-dimethylpyrrolidin-2-one dihydrochloride] | 2.2 | < 1000 | 54 | – |
| C[C@@H]1CN(CC(=O)N2CC(C)(C)c3cnc(Cc4ccc(F)cc4F)cc32)[C@@H](CN2Cc3ccccc3C2=O)CN1 [Example 77, 2-{[(2R,5R)-1-(2-{6-[(2,4-Difluorophenyl)methyl]-3,3-dimethyl-1H,2H,3H-pyrrolo[3,2-c]pyridin-1-yl}-2-oxoethyl)-5-methylpiperazin-2-yl]methyl}-2,3-dihydro-1H-isoindol-1-one dihydrochloride] | 0.17 | < 1000 | 90 | – |
| C[C@@H]1CN(CC(=O)N2CC(C)(C)c3ncc(Cc4ccc(F)cc4F)cc32)[C@@H](CN2Cc3c(O)cccc3C2=O)CN1 [Example 118, 2-{[(2R,5R)-1-(2-{6-[(2,4-Difluorophenyl)methyl]-3,3-dimethyl-1H,2H,3H-pyrrolo[3,2-b]pyridin-1-yl}-2-oxoethyl)-5-methylpiperazin-2-yl]methyl}-4-hydroxy-2,3-dihydro-1H-isoindol-1-one dihydrochloride] | 6.4 | < 1000 | 72 | – |
| C[C@@H]1CN(CC(=O)N2CC(C)(C)c3nnc(Cc4ccc(F)cc4F)cc32)[C@@H](CN2Cc3cccc(F)c3C2=O)CN1 [Example 113, 2-{[(2R,5R)-1-(2-{3-[(2,4-Difluorophenyl)methyl]-7,7-dimethyl-5H,6H,7H-pyrrolo[3,2-c]pyridazin-5-yl}-2-oxoethyl)-5-methylpiperazin-2-yl]methyl}-7-fluoro-2,3-dihydro-1H-issoindol-1-one dihydrochloride] | 0.62 | < 1000 | 69 | – |
| C[C@@H]1CN(CC(=O)N2CC(C)(C)c3ncc(Cc4ccc(F)cc4F)cc32)[C@@H](CN2Cc3cc(C#N)ccc3C2=O)CN1 [Example 106, 2-{[(2R,5R)-1-(2-{6-[(2,4-Difluorophenyl)methyl]-3,3-dimethyl-1H,2H,3H-pyrrolo[3,2-b]pyridin-1-yl}-2-oxoethyl)-5-methylpiperazin-2-yl]methyl}-1-oxo-2,3-dihydro-1H-isoindole-5-carbonitrile dihydrochloride] | 2.1 | < 1000 | 90 | – |
| C[C@H]1CC(=O)N(C[C@H]2CN[C@H](C)CN2CC(=O)N2CC(C)(C)c3cnc(Cc4ccc(F)cc4F)cc32)C1 [Example 74, (4S)-1-{[(2R,5R)-1-(2-{6-[(2,4-Difluorophenyl)methyl]-3,3-dimethyl-1H,2H,3H-pyrrolo[3,2-c]pyridin-1-yl}-2-oxoethyl)-5-methylpiperazin-2-yl]methyl}-4-methylpyrrolidin-2-one dihydrochloride] | 1.8 | < 1000 | 71 | – |
| C[C@@H]1CN(CC(=O)N2CC(C)(C)c3cnc(Cc4ccc(F)cc4F)cc32)[C@@H](CN2CC(C)(C)CC2=O)CN1 [Example 32, 1-{[(2R,5R)-1-(2-{6-[(2,4-Difluorophenyl)methyl]-3,3-dimethyl-1H,2H,3H-pyrrolo[3,2-c]pyridin-1-yl}-2-oxoethyl)-5-methylpiperazin-2-yl]methyl}-4,4-dimethylpyrrolidin-2-one dihydrochloride] | 1.3 | < 1000 | 71 | – |
| C[C@@H]1CN(CC(=O)N2CC(C)(C)c3ncc(Cc4ccc(F)cc4)cc32)[C@@H](CN2Cc3ccncc3C2=O)CN1 [Example 19, 2-{[(2R,5R)-1-(2-{6-[(4-Fluorophenyl)methyl]-3,3-dimethyl-1H,2H,3H-pyrrolo[3,2-b]pyridin-1-yl}-2-oxoethyl)-5-methylpiperazin-2-yl]methyl}-1H,2H,3H-pyrrolo[3,4-c]pyridin-3-one, dihydrochloride] | 2.4 | < 1000 | 64 | – |
| CCCC(F)(F)c1cc2c(cn1)C(C)(C)CN2C(=O)CN1C[C@@H](C)NC[C@@H]1CN1CC(C)(C)CC1=O [Example 38, 1-{[(2R,5R-1-{2-[6-(1,1-Difluorobutyl)-3,3-dimethyl-1H,2H,3H-pyrrolo[3,2-c]pyridin-1-yl]-2-oxoethyl}-5-methylpiperazin-2-yl]methyl}-4,4-dimethylpyrrolidin-2-one dihydrochloride] | 13 | < 1000 | 76 | – |
| C[C@@H]1CN(CC(=O)N2CC(C)(C)c3cnc(Cc4ccc(F)cc4F)cc32)[C@@H](CN2C[C@H](C)N(C)CC2=O)CN1 [Example 81, (5S)-1-{[(2R,5R)-1-(2-{6-[(2,4-Difluorophenyl)methyl]-3,3-dimethyl-1H,2H,3H-pyrrolo[3,2-c]pyridin-1-yl}-2-oxoethyl)-5-methylpiperazin-2-yl]methyl}-4,5-dimethylpiperazin-2-one dihydrochloride] | 2.8 | < 1000 | 52 | – |
| C[C@@H]1CN(CC(=O)N2CC(C)(C)c3ncc([C@@H](O)c4ccc(F)cc4)cc32)[C@@H](CN2Cc3ccccc3C2=O)CN1 [Example 96, 2-{[(2R,5R)-1-(2-{6-[(S)-(4-Fluorophenyl)(hydroxy)methyl]-3,3-dimethyl-1H,2H,3H-pyrrolo[3,2-b]pyridin-1-yl}-2-oxoethyl)-5-methylpiperazin-2-yl]methyl}-2,3-dihydro-1H-isoindol-1-one] | 31 | < 1000 | 62 | – |
| CCCC(O)c1cnc2c(c1)N(C(=O)CN1C[C@@H](C)NC[C@@H]1CN1Cc3ccccc3C1=O)CC2(C)C (single isomer, unassigned) [Example 90, dihydrochloride] | – | < 1000 | 54 | 13 |
| CCCC(F)(F)c1cc2c(cn1)C(C)(C)CN2C(=O)CN1C[C@@H](C)NC[C@@H]1CN1C[C@@H](C)CC1=O [Example 75, (4S)-1-{[(2R,5R)-1-{2-[6-(1,1-Difluorobutyl)-3,3-dimethyl-1H,2H,3H-pyrrolo[3,2-c]pyridin-1-yl]-2-oxoethyl}-5-methylpiperazin-2-yl]methyl}-4-methylpyrrolidin-2-one dihydrochloride] | 14 | < 1000 | 75 | – |
| C[C@@H]1CN(CC(=O)N2CC(C)(C)c3ncc(Cc4ccc(F)cc4)cc32)[C@@H](CN2CC(C)(C)OC2=O)CN1 [Example 5, 3-{[(2R,5R)-1-(2-{6-[(4-Fluorophenyl)methyl]-3,3-dimethyl-1H,2H,3H-pyrrolo[3,2-b]pyridin-1-yl}-2-oxoethyl)-5-methylpiperazin-2-yl]methyl}-5,5-dimethyl-1,3-oxazolidin-2-one dihydrochloride] | 6.2 | < 1000 | 44 | – |
| CCC1CN(C[C@H]2CN[C@H](C)CN2CC(=O)N2CC(C)(C)c3cnc(Cc4ccc(F)cc4F)cc32)C(=O)CO1 (single isomer, unassigned) [Example 80, 4-{[(2R,5R)-1-(2-{6-[(2,4-Difluorophenyl)methyl]-3,3-dimethyl-1H,2H,3H-pyrrolo[3,2-c]pyridin-1-yl}-2-oxoethyl)-5-methylpiperazin-2-yl]methyl}-(R or S)-6-ethylmorpholin-3-one dihydrochloride] | 1.8 | < 1000 | 46 | – |
| C[C@@H]1CN(CC(=O)N2CC(C)(C)c3ncc(Cc4ccc(F)cc4)cc32)[C@@H](CN2CCC(C)(C)C2=O)CN1 [Example 4, 1-{[(2R,5R)-1-(2-{6-[(4-Fluorophenyl)methyl]-3,3-dimethyl-1H,2H,3H-pyrrolo[3,2-b]pyridin-1-yl}-2-oxoethyl)-5-methylpiperazin-2-yl]methyl}-3,3-dimethylpyrrolidin-2-one dihydrochloride] | 3 | < 1000 | 34 | – |
| C[C@@H]1CN(CC(=O)N2CC(C)(C)c3cnc(Cc4ccc(F)cc4F)cc32)[C@@H](CN2C[C@@H](C)OCC2=O)CN1 [Example 69, (6R)-4-{[(2R,5R)-1-(2-{6-[(2,4-Difluorophenyl)methyl]-3,3-dimethyl-1H,2H,3H-pyrrolo[3,2-c]pyridin-1-yl}-2-oxoethyl)-5-methylpiperazin-2-yl]methyl}-6-methylmorpholin-3-one dihydrochloride] | 2.6 | < 1000 | 68 | – |
| C[C@@H]1CN(CC(=O)N2CC(C)(C)c3cnc(Cc4ccc(F)cc4)cc32)[C@@H](CN2C[C@H](C)OCC2=O)CN1 (single isomer, unassigned) [Example 18, (6R or 6S)-4-{[(2R,5R)-1-(2-{6-[(4-Fluorophenyl)methyl]-3,3-dimethyl-1H,2H,3H-pyrrolo[3,2-c]pyridin-1-yl}-2-oxoethyl)-5-methylpiperazin-2-yl]methyl}-6-methylmorpholin-3-one L-lactate] | 3.5 | < 1000 | 70 | – |
